A word on the inhibition: it is the drop in the measured response relative to a control, in per cent.

This note sets out measurements from ChEMBL document CHEMBL3046478, “Evaluating anti-Toxoplasma gondii activity of new serie of phenylsemicarbazone and phenylthiosemicarbazones in vitro” (Med Chem Res, 2013).

The subject of data set [1] is Vero. The data set can be described thus: Cytotoxicity against Chlorocebus aethiops (African green monkey) Vero cells infected with Toxoplasma gondii RH tachyzoites assessed as cell death and morphological alterations at 0.5 mM after 24 hr by microscopic analysis. In kind it is cell-based. The conditions noted are these: chlorocebus sabaeus, 500 µM.
The test system of data set [2] is Vero. In words: Cytotoxicity against Chlorocebus aethiops (African green monkey) Vero cells infected with Toxoplasma gondii RH tachyzoites assessed as cell death and morphological alterations at 0.01 mM after 24 hr by microscopic analysis. In kind it is cell-based. The conditions noted are these: chlorocebus sabaeus, 10 µM.
Data set [3] has as its system Toxoplasma gondii. The data set can be described thus: Antiparasitic activity against Toxoplasma gondii RH tachyzoites infected African green monkey Vero cells assessed as mortality treated 24 hr after parasite infection measured after 24 hr by Giemsa staining based microscopic analysis. Conditions: read-out: LD50 (the source's name). In kind it is functional.
Data set [4] can be described thus: Cytotoxicity against Chlorocebus aethiops (African green monkey) Vero cells infected with Toxoplasma gondii RH tachyzoites assessed as cell death and morphological alterations after 24 hr by microscopic analysis. In kind it is cell-based. Conditions: chlorocebus sabaeus, read-out: LD50.
In data set [5] the test system is Vero. The data set can be described thus: Cytotoxicity against Chlorocebus aethiops (African green monkey) Vero cells infected with Toxoplasma gondii RH tachyzoites assessed as cell death and morphological alterations at 1 mM after 24 hr by microscopic analysis. In kind it is cell-based. The conditions noted are these: chlorocebus sabaeus, 1000 µM.
The test system of data set [6] is Toxoplasma gondii. The data set can be described thus: Antiparasitic activity against Toxoplasma gondii RH tachyzoites infected African green monkey Vero cells assessed as reduction in number of intracellular parasites at 0.01 mM treated 24 hr after parasite infection measured after 24 hr by Giemsa staining based microscopic analysis. In kind it is functional.
Data set [7] has as its system Toxoplasma gondii. The data set can be described thus: Antiparasitic activity against Toxoplasma gondii RH tachyzoites infected African green monkey Vero cells assessed as reduction in number of intracellular parasites at 0.1 mM treated 24 hr after parasite infection measured after 24 hr by Giemsa staining based microscopic analysis. In kind it is functional, organism-based.

In data set [8] the test system is Toxoplasma gondii. The data set can be described thus: Antiparasitic activity against Toxoplasma gondii RH tachyzoites infected African green monkey Vero cells assessed as reduction in number of intracellular parasites at 1 mM treated 24 hr after parasite infection measured after 24 hr by Giemsa staining based microscopic analysis. In kind it is functional, organism-based.

For data set [9], the system named is Toxoplasma gondii. The data set can be described thus: Antiparasitic activity against Toxoplasma gondii RH tachyzoites infected African green monkey Vero cells assessed as reduction in number of infected Vero cells at 0.01 mM treated 24 hr after parasite infection measured after 24 hr by Giemsa staining based microscopic analysis. In kind it is functional.

SMILES strings stand for the structures. Calls of active or inactive are those of the source. The rule behind the calls is not given here. A value given as a limit tells only on which side of the number the result lay.

Turning to `COc1cc(O)cc(OC)c1/C=N/NC(=S)Nc1ccccc1`, the results for the Activity in [1], in [2] and in [5] were 50%, “Non-toxic” and 100%, respectively. For the same molecule, the LC50 in data set [3] is 200 µM. For the same molecule, the CC50 at 24 h in [4] was found to be 700 µM.
For `O=C(N/N=C/c1cc(O)c(O)cc1O)Nc1ccccc1`, the inhibition at 10 µM in data set [6] was 82%. The results for the Activity entry in [1], in data set [2] and in [5] were “Toxic”, “Non-toxic” and “Toxic”, respectively. In addition, in data set [3], the LC50 was 6 µM. Moreover, the CC50 at 24 h in data set [4] is 300 µM. Besides, the inhibition result in [7] was “Active”.
Consider `COc1cc(O)cc(OC)c1/C=N/NC(=O)Nc1ccccc1`, for which the Activity result in data set [2] was “Non-toxic”. The LC50 in [3] amounted to 500 µM. In data set [4], the CC50 at 24 h was over 1000 µM.
In the case of `Oc1cc(O)c(/C=N/NC(=S)Nc2ccccc2)cc1O`, the Activity result in data set [1] is “Toxic”; in data set [2], “Non-toxic”; in data set [5], “Toxic”. Further, in data set [3], the LC50 was found to be 80 µM. Also, the CC50 at 24 h in data set [4] came out at 300 µM.
With `O=C(N/N=C/c1ccc(O)c(O)c1O)Nc1ccccc1`, the figures for the Activity entry in [1], in data set [2] and in data set [5] were “Toxic”, “Non-toxic” and “Toxic”, respectively. In addition, the LC50 in data set [3] was 200 µM. Moreover, in data set [4], the CC50 at 24 h came out at 300 µM.
With `Oc1ccc(/C=N/NC(=S)Nc2ccccc2)c(O)c1O`, the Activity entry was “Toxic” in data set [1], “Non-toxic” in [2] and “Toxic” in [5]. Besides, the LC50 in [3] was 30 µM. Besides, in data set [4], the CC50 at 24 h amounted to 400 µM.
For the molecule `COc1cc(O)cc(OC)c1/C=N/C(=O)NNc1ccccc1`, the Activity result in [2] is listed as “Non-toxic”. The LC50 in data set [3] came to 600 µM. Besides, the CC50 at 24 h in [4] was over 1000 µM. The inhibition entry in data set [8] was “Active”.
Turning to `O=C(/N=C/c1cc(O)c(O)cc1O)NNc1ccccc1`, the Activity result is on record as “Toxic” in [1], “Non-toxic” in data set [2] and “Toxic” in data set [5]. In addition, in [3], the LC50 was found to be 300 µM. Besides, the CC50 at 24 h in [4] was 400 µM.
For `O=C(/N=C/c1ccc(O)c(O)c1O)NNc1ccccc1`, the figures for the Activity entry in [1], in data set [2] and in [5] were “Toxic”, “Non-toxic” and “Toxic”, respectively. The LC50 in data set [3] amounted to 20 µM. In addition, the CC50 at 24 h in data set [4] came to 70 µM. In data set [9], the inhibition at 10 µM was found to be 50%.
For the molecule `Nc1ccc(S(=O)(=O)Nc2ncccn2)cc1` [SULFADIAZINE], in data set [3], the LC50 turned out to be 6000 µM. Besides, the CC50 at 24 h in data set [4] was over 10000 µM.
